Here are results for four compounds from patent US20240279298A1 (BEIJING TUO JIE BIOPHARMACEUTICAL CO. LTD., priority 2021, published 2024).

Converted amounts (≈) assume the structure as drawn. Where a SMILES comes first, the peptide text is derived from it. [ ]: non-standard residue; d: D form. Aib = CC(C)(N)C(=O)O Some results are limits rather than exact numbers.

The target of data set [1] is T1, human glucagon receptor (GCGR) (Homo sapiens, UniProt P47871).
T1 construct: expressed in transfected cells
T1 sequence (P47871 26-477): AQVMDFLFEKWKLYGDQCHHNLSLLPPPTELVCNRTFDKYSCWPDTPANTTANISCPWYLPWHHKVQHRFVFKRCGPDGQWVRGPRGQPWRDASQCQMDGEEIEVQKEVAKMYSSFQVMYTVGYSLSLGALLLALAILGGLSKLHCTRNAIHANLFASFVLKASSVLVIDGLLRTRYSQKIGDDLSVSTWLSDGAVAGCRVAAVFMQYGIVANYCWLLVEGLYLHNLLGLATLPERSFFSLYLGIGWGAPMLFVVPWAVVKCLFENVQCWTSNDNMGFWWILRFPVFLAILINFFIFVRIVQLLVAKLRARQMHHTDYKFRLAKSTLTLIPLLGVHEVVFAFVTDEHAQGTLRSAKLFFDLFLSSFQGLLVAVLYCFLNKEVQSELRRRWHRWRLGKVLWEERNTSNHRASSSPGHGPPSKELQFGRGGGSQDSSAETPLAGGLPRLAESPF
The data set can be described thus: Agonist activity assay for GCGR (cAMP HTRF). The conditions noted are these: normalized by the activity of the native glucagon. Format: cell-based. As for the experimental part: The activation of GCGR by related compounds will stimulate the formation of cyclic adenosine monophosphate (cAMP) in cells. Thus, the receptor activity can be monitored by cAMP production in proper cells expressing the receptor. […] The cells were passaged at least once for subsequent tests. Before testing, the cells were trypsinized, centrifuged, washed once, and resuspended in serum-free DMEM/F12 medium. The cell density was adjusted, and the cells were plated in a 96-well plate at a density of 2,500 cells/5 μL/well. […] The mixture was mixed well by moderate vibration, and incubated for 1 hour at room temperature away from light.
(In general: TR-FRET usually uses a lanthanide donor and a delayed reading to cut background.)

The nature of data set [2]: Maximum solubility in phosphate buffer pH 7.4. Format: physicochemical. The conditions noted are these: phosphate buffer pH 7.4, room temperature.
The subject of another data set is human liver microsomes. The data set can be described thus: Stability in human liver microsome incubation system. For orientation: Liver microsomes are a subcellular fraction often used to study metabolism.
The nature of data set [3]: Chemical stability in phosphate buffer (UPLC purity). The conditions noted are these: phosphate buffer pH 7.4, 1 mg/mL. Format: physicochemical.
Data set [4] is described as follows: Pharmacokinetics in rats after subcutaneous injection. Format: in vivo, SD rats. The conditions noted are these: plasma. As for the experimental part: (1) Animals were grouped according to Table 12, and were given free access to water and food before administration.
• Sampling time: 0 min pre-dose, and 2 min, 4 min, 7 min, 10 min, 20 min, 40 min, 1 h and 2 h post-dose. Blood was collected from rats by jugular catheterization.
• 1) 0.2 mL of whole blood was collected at each time point into a centrifuge tube containing EDTA-K2; • 2) The blood samples were centrifuged at 4000 g at 4° C. for 5 min, and separated to give the plasma; • 3) The plasma samples were cryopreserved at −80° C.
The mixture was vortexed for 5 min and centrifuged at a low temperature for 10 min. 100 μL of the supernatant was taken and added to 100 μL of 0.1% formic acid aqueous solution. The mixture was mixed well, and loaded on the instrument for analysis; • Liquid chromatography and mass spectrometry analysis: LC-30A liquid chromatography system (Shimadzu, Japan) and API 5500 liquid chromatography-triple quadrupole mass spectrometer (Analyst Software data processing system, AB Sciex, USA) were used. The chromatographic column was nanomicro Unisil C18aq (4.6 mm×150 mm, 5 μm) chromatographic column; the column temperature was 40° C.; the mobile phase A was 0.1% formic acid aqueous solution, and the mobile phase B was 0.1% formic acid in acetonitrile; the flow rate was 0.5 mL/min; the injection volume was 20 μL; the gradient is shown in Table 13 below. The mass spectrum was obtained using an electrospray ionization (ESI) source, a positive ion analysis mode and a multi reaction monitoring (MRM) scanning mode.
The plasma concentration of the test compounds was measured by HPLC-MS/MS. The plasma concentration-time curve was plotted, and the pharmacokinetic parameters were calculated by PKSolver.

The test system of data set [5] is insulin-induced hypoglycemia rat model. The data set can be described thus: Efficacy in insulin-induced hypoglycemic rat model. Format: in vivo, SD rats. The conditions noted are these: insulin 0.65 IU/kg at T0; 12 nmol/kg subcutaneous at 45 min.
A short description of data set [6]: in vitro. The conditions noted are these: human.
The next data set concerns human kidney microsomes. The data set can be described thus: Stability in human kidney microsome incubation system.
Data set [7] relates to rat erythrocyte suspension. The data set can be described thus: Hemolysis assay. The conditions noted are these: for Hemolysis rate: 37° C., 1 hour.
Data set [8] in a line: in vitro. The conditions noted are these: human. This is another data set of the same source.
In data set [9] the test system is normal rats (blood glucose). Briefly: Efficacy in normoglycemic rat model. The conditions noted are these: normal rats, 2 nmol/kg subcutaneous single dose. Format: in vivo, SD rats.

The solubility is the dissolved amount per volume that the medium holds. Higher therefore signals a readily soluble substance. By Tmax is commonly meant the time at which the peak concentration occurs. As a reminder, the half-life is how long it takes for the measured level to halve. The bioavailability is dose-corrected exposure relative to a reference, in per cent. A word on the share remaining: it is what is left of the initial amount, in per cent.

Regarding `CC(C)C[C@H](NC(=O)[C@H](Cc1ccc(O)cc1)NC(=O)[C@H](CCCCN)NC(=O)[C@H](CO)NC(=O)[C@H](Cc1ccc(O)cc1)NC(=O)[C@H](CC(=O)O)NC(=O)[C@H](CO)NC(=O)[C@@H](NC(=O)[C@H](Cc1ccccc1)NC(=O)[C@@H](NC(=O)CNC(=O)[C@H](Cc1c[nH]cn1)NC(=O)[C@H](CO)NC(=O)[C@@H](N)Cc1c[nH]cn1)[C@@H](C)O)[C@@H](C)O)C(=O)N[C@@H](CC(=O)O)C(=O)N[C@@H](CC(C)C)C(=O)NC(C)(C)C(=O)N[C@@H](CCCNC(=N)N)C(=O)N[C@@H](C)C(=O)N[C@@H](CCC(N)=O)C(=O)N[C@@H](CCC(=O)O)C(=O)N[C@@H](Cc1ccccc1)C(=O)N[C@H](C(=O)N[C@@H](CCC(=O)O)C(=O)N[C@@H](Cc1c[nH]c2ccccc12)C(=O)N[C@@H](CC(C)C)C(=O)N[C@@H](CCC(=O)O)C(=O)N[C@@H](CO)C(=O)N[C@H](C(=O)O)[C@@H](C)O)C(C)C` [Compound 47] (H-HSHGTFTSDYSKYLDL[Aib]RAQEFVEWLEST-OH), the Relative activity in [1] came to 253%. The solubility at 5 min in [2] was > 2070 µg/mL.
On to `CC(C)C[C@H](NC(=O)[C@H](Cc1c[nH]c2ccccc12)NC(=O)[C@H](CCCCN)NC(=O)[C@@H](NC(=O)[C@H](Cc1ccccc1)NC(=O)[C@H](CCC(=O)O)NC(=O)[C@H](CCC(=O)O)NC(=O)[C@H](C)NC(=O)[C@H](CCCNC(=N)N)NC(=O)[C@H](C)NC(=O)C(C)(C)NC(=O)[C@H](CC(=O)O)NC(=O)[C@H](CC(C)C)NC(=O)[C@H](Cc1ccc(O)cc1)NC(=O)[C@H](CCCCN)NC(=O)[C@H](CO)NC(=O)[C@H](Cc1ccc(O)cc1)NC(=O)[C@H](CC(=O)O)NC(=O)[C@H](CO)NC(=O)[C@@H](NC(=O)[C@H](Cc1ccccc1)NC(=O)[C@@H](NC(=O)CNC(=O)[C@H](CCC(N)=O)NC(=O)[C@H](CO)NC(=O)[C@@H](N)Cc1c[nH]cn1)[C@@H](C)O)[C@@H](C)O)C(C)C)C(=O)N[C@@H](CCC(=O)O)C(=O)N[C@@H](CO)C(=O)N[C@H](C(=O)O)[C@@H](C)O` [Dasiglucagon, reference compound], for which, in the data set on human liver microsomes (With NADPH), the “Percentage residues 0 min” value was 100.0%. In addition, in the data set with human liver microsomes (Without NADPH), the “Percentage residues 0 min” value was 100.0%, the “Percentage residues 15 min” value worked out at 91.65%, the “Percentage residues 30 min” value was determined as 88.78% and the “Percentage residues 60 min” value is on record as 71.74%. In addition, the “Percentage residues 120 min” value in the data set on human liver microsomes (Without NADPH) stood at 53.48%. In the data set with human liver microsomes (Without NADPH, 1 μM), this compound gave a T½ of 125.37 min. In [3] (4° C.), the “Purity Day 7” value came out at 98.66%, the “Purity Day 14” value is 98.84%, the “Purity Day 21” value was 99.85% and the “Purity Day 28” value is 99.68%. Further, in data set [3] (25° C.), the “Purity Day 7” value is recorded as 98.07%, the “Purity Day 14” value is given as 96.73%, the “Purity Day 21” value came to 96.68% and the “Purity Day 28” value worked out at 96.81%. Besides, in data set [3] (day 0 (normalization)), the “Purity Day 0” value turned out to be 100.00%. Further, the AUClast/D in data set [4] (male SD rats, single SC injection, Dasiglucagon 5 mg/kg, 40 5.06 mg/kg) stood at 260 h·ng/mL per mg/kg. Further, the Tmax in data set [4] (male, SD, rat, sc) is 10 min. The compound also had a half-life in data set [4] (male, SD, rat, sc, male SD rats, single SC injection, Dasiglucagon 5 mg/kg, 40 5.06 mg/kg) of 30.6 min. Also, the bioavailability in data set [4] (male, SD, rat, sc, read-out: Bioavailability (F %)) was 84.6%. In addition, in [5], the “Blood glucose 60 min” value is 7.00 mmol/L, the “Blood glucose 75 min” value was 9.52 mmol/L, the “Blood glucose 90 min” value is 8.43 mmol/L and the “Blood glucose 105 min” value came out at 7.47 mmol/L. In “in vitro [6]” (human kidney microsomes), this compound had a share remaining at 0.25 h, 1 μM of 63.5%; a share remaining at 0.5 h, 1 μM of 52.9%; an amount remaining at 1 h, 1 μM of 36.6%; an amount remaining at 2 h, 1 μM of 17.7%. This compound also yielded a half-life at 1 μM in the data set “in vitro [6]” (kidney microsomes) of 51.3 min. Moreover, the “Percentage residues 0 min” value with human kidney microsomes (With NADPH) was 100.0%. Further, in the data set with human kidney microsomes (Without NADPH), the “Percentage residues 0 min” value is 100.0%, the “Percentage residues 15 min” value was 73.24%, the “Percentage residues 30 min” value was determined as 55.17% and the “Percentage residues 60 min” value was found to be 33.12%. The “Percentage residues 120 min” value with human kidney microsomes (Without NADPH) came to 19.74%. Also, in the data set on human kidney microsomes (Without NADPH, 1 μM), the T½ was determined as 51.98 min. The Hemolysis rate in data set [7] (1 μg/mL) is listed as −4.69%. For the same compound, the Hemolysis rate in [7] (3 μg/mL) is listed as −4.77%. Moreover, the Hemolysis rate in data set [7] (10 μg/mL) is recorded as −4.05%. Moreover, the Hemolysis rate in data set [7] (30 μg/mL) was −5.23%. Moreover, the Hemolysis rate in data set [7] (100 μg/mL) is −5.52%. The Hemolysis rate in data set [7] (300 μg/mL) is given as −4.63%. For the same compound, in [7] (concentrations ranging from 1 to 300 μg/mL), the “Hemolysis risk (in words)” value is “no significant risk of the hemolysis adverse effect was found”. Also, in “in vitro [8]” (human liver microsomes), the fraction remaining at 0.25 h, 1 μM is 91.8%; the share remaining at 0.5 h, 1 μM came out at 91.6%; the fraction remaining at 1 h, 1 μM was 81.1%; the fraction remaining at 2 h, 1 μM is 59.2%. The same compound yielded a half-life at 1 μM in “in vitro [8]” (liver microsomes) of 162 min. Further, in data set [9], the “Blood glucose 15 min” value is 9.32 mmol/L, the “Blood glucose 30 min” value was determined as 7.73 mmol/L, the “Blood glucose 45 min” value was 6.87 mmol/L and the “Blood glucose 60 min” value came to 6.08 mmol/L. Moreover, the solubility at 5 min in data set [2] was > 3750 µg/mL.
`CC(C)C[C@H](NC(=O)[C@H](Cc1ccc(O)cc1)NC(=O)[C@H](CCCCN)NC(=O)[C@H](CO)NC(=O)[C@H](Cc1ccc(O)cc1)NC(=O)[C@H](CC(=O)O)NC(=O)[C@H](CO)NC(=O)[C@@H](NC(=O)[C@H](Cc1ccccc1)NC(=O)[C@@H](NC(=O)CNC(=O)[C@H](CCC(N)=O)NC(=O)[C@H](CO)NC(=O)[C@@H](N)Cc1c[nH]cn1)[C@@H](C)O)[C@@H](C)O)C(=O)N[C@@H](CCC(=O)O)C(=O)N[C@@H](CO)C(=O)NC(C)(C)C(=O)N[C@@H](CCCNC(=N)N)C(=O)N[C@@H](C)C(=O)N[C@@H](CCC(=O)O)C(=O)N[C@@H](CC(=O)O)C(=O)N[C@@H](Cc1ccccc1)C(=O)N[C@H](C(=O)N[C@@H](CCCNC(=N)N)C(=O)N[C@@H](Cc1c[nH]c2ccccc12)C(=O)N[C@@H](CC(C)C)C(=O)N[C@@H](CCC(=O)O)C(=O)N[C@@H](CO)C(=O)N[C@H](C(=O)O)[C@@H](C)O)C(C)C` [Compound 38] (H-HSQGTFTSDYSKYLES[Aib]RAEDFVRWLEST-OH): the solubility in data set [2] was > 16400 µg/mL.
On to `CC(C)C[C@H](NC(=O)[C@H](Cc1ccc(O)cc1)NC(=O)[C@H](CCCCN)NC(=O)[C@H](CO)NC(=O)[C@H](Cc1ccc(O)cc1)NC(=O)[C@H](CC(=O)O)NC(=O)[C@H](CO)NC(=O)[C@@H](NC(=O)[C@H](Cc1ccccc1)NC(=O)[C@@H](NC(=O)CNC(=O)[C@H](Cc1c[nH]cn1)NC(=O)[C@H](CO)NC(=O)[C@@H](N)Cc1c[nH]cn1)[C@@H](C)O)[C@@H](C)O)C(=O)N[C@@H](CC(=O)O)C(=O)N[C@@H](CC(C)C)C(=O)NC(C)(C)C(=O)N[C@@H](CCCNC(=N)N)C(=O)N[C@@H](C)C(=O)N[C@@H](CCC(N)=O)C(=O)N[C@@H](CCC(=O)O)C(=O)N[C@@H](Cc1ccccc1)C(=O)N[C@H](C(=O)N[C@@H](CCC(N)=O)C(=O)N[C@@H](Cc1c[nH]c2ccccc12)C(=O)N[C@@H](CC(C)C)C(=O)N[C@@H](CCC(=O)O)C(=O)N[C@@H](CO)C(=O)N[C@H](C(=O)O)[C@@H](C)O)C(C)C` [Compound 43] (H-HSHGTFTSDYSKYLDL[Aib]RAQEFVQWLEST-OH), for which, in data set [1], the Relative activity came out at 371%. The same compound returned a solubility at 5 min in data set [2] of 1620 µg/mL (≈ 472 µM).
